The target of data set [1] is T1, human Panx1 channels (Homo sapiens, UniProt Q96RD7).
T1 construct: expressed in transfected cells; host or cells: Dubca cells, transduced, stably overexpressing human Panx1
Description: Panx1 channel activity assay (extracellular ATP release after osmotic shock). It counts as cell-based. Conditions: for Effect on extracellular ATP release / Panx1 channel activity (in words): 45 min exposure, six concentrations BC/10 to BCx10; for Concentration with significant inhibition of Panx1 channel activity (extracellular ATP release): 45 min exposure (15 min preincubation + 30 min osmotic buffer), combination given as final lopinavir concentration.

Data set [2] deals with transduced Dubca cells overexpressing human Panx1. The following applies: dromedary camel.
The conditions of data set [3]: cited from earlier work.
The nature of data set [4]: Cell viability (MTT) assay, 45 min exposure in classic buffer. Conditions: dromedary camel, transduced Dubca cells overexpressing human Panx1.
Data set [5] relates to transduced Dubca cells overexpressing human Panx1. The data set is described as follows: Cell viability (MTT) assay, 24 h exposure, for CC10 determination. The following applies: sigmoidal curve fit.
The subject of data set [6] is Panx1 protein expression. Description: Panx1 protein expression by immunoblot analysis. The following applies: 24 h exposure, BC, BC/2, BC/10; total Panx1 and glycosylated isoforms. It counts as cell-based, human.
For data set [7], the system named is Panx1 mRNA expression. Description: Panx1 mRNA expression by RT-qPCR analysis. Type of data set: cell-based, human. Conditions: 24 h exposure, BC, BC/2, BC/10. (Quantitative PCR measures a nucleic acid by following its amplification.)
The mark [8] stands for this setting: maximum plasma concentration extracted from literature and recalculated to µM, reference per cell.

Entries after “also recorded” stand apart in the source; their conditions may differ. Where two headings read alike, the source gives them in different places.

For orientation: Cmax means the maximum level reached in the sampled fluid or tissue. A word on the viability: it is a per cent measure of how many cells are alive, often set against a control.

T1 sequence (Q96RD7 whole entry): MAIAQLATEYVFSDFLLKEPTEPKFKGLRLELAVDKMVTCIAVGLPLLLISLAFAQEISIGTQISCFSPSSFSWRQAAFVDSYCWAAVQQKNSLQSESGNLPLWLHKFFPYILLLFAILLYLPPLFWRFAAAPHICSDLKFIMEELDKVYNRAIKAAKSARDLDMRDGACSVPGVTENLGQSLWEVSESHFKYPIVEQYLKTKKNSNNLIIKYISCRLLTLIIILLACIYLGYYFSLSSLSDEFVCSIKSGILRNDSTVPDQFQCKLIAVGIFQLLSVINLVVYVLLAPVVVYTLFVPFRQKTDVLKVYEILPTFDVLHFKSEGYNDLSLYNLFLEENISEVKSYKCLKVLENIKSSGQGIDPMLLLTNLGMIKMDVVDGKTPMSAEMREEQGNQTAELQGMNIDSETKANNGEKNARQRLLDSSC

Take `CCC(CC)COC(=O)[C@H](C)N[P@](=O)(OC[C@H]1O[C@@](C#N)(c2ccc3c(N)ncnn23)[C@H](O)[C@@H]1O)Oc1ccccc1` [Remdesivir]: in data set [1], the “Effect on extracellular ATP release / Panx1 channel activity (in words)” value is “comparable concentration-dependent trend”. For the same compound, in data set [2], the “CC10 (concentration inducing 10% of cell death)” value is over 100 µM. In data set [3] (setting [8]), the Cmax is 9.03 µM.

In turn, `CC[C@H]1OC(=O)[C@H](C)[C@@H](O[C@H]2C[C@@](C)(OC)[C@@H](O)[C@H](C)O2)[C@H](C)[C@@H](O[C@@H]2O[C@H](C)C[C@H](N(C)C)[C@H]2O)[C@](C)(O)C[C@@H](C)CN(C)[C@H](C)[C@@H](O)[C@]1(C)O` [Azithromycin (dihydrate), azithromycin dihydrate] returned a viability at 45 min, 590 µM in data set [4] of 74%. Besides, in data set [3] (setting [8]), the Cmax is 0.52 µM. For the same compound, the “CC10 (concentration inducing 10% of cell death)” value in data set [5] turned out to be 59 µM.

`C[C@@H]1C[C@H]2[C@@H]3CCC4=CC(=O)C=C[C@]4(C)[C@@]3(F)[C@@H](O)C[C@]2(C)[C@@]1(O)C(=O)CO` [Dexamethasone, dexamethasone]: the “CC10 (concentration inducing 10% of cell death)” value in data set [2] is over 200 µM. In data set [3] (setting [8]), the Cmax was 0.63 µM.

In the case of `NC(=O)c1nc(F)c[nH]c1=O` [Favipiravir, favipiravir], the “Effect on extracellular ATP release / Panx1 channel activity (in words)” value in data set [1] is given as “significant decrease in extracellular ATP release; also recorded: inhibit Panx1 channel activity”. Further, the “Effect on Panx1 protein levels” value in data set [6] is on record as “without affecting mRNA or protein levels”. Moreover, in data set [3] (in vivo), the Cmax was 53.4 µM. Besides, the “CC10 (concentration inducing 10% of cell death)” value in data set [5] is listed as over 200 µM. The “Effect on Panx1 mRNA levels” value in data set [7] is listed as “without affecting mRNA or protein levels”.

Turning to `Cc1cccc(C)c1OCC(=O)N[C@@H](Cc1ccccc1)[C@@H](O)C[C@H](Cc1ccccc1)NC(=O)[C@H](C(C)C)N1CCCNC1=O` [Lopinavir, lopinavir], in data set [1], the “Concentration with significant inhibition of Panx1 channel activity (extracellular ATP release)” value turned out to be 85 µM and the “Effect on extracellular ATP release / Panx1 channel activity (in words)” value is “significant decrease in extracellular ATP release; also recorded: inhibit Panx1 channel activity”. The “Effect on Panx1 protein levels” value in data set [6] was “without affecting mRNA or protein levels”. Besides, in data set [5], the “CC10 (concentration inducing 10% of cell death)” value came to 17 µM. In data set [7], the “Effect on Panx1 mRNA levels” value was “without affecting mRNA or protein levels”.

As to `CC(C)c1nc(CN(C)C(=O)N[C@H](C(=O)N[C@@H](Cc2ccccc2)C[C@H](O)[C@H](Cc2ccccc2)NC(=O)OCc2cncs2)C(C)C)cs1` [Ritonavir, ritonavir], the “Effect on extracellular ATP release / Panx1 channel activity (in words)” value in data set [1] is “did not decrease extracellular ATP release”. Moreover, in data set [3] (setting [8]), the Cmax is 22.5 µM. For the same compound, the “CC10 (concentration inducing 10% of cell death)” value in data set [5] worked out at 12 µM.

With `CCN(CC)CCCC(C)Nc1ccnc2cc(Cl)ccc12` (stereo not drawn) [Chloroquine (diphosphate), chloroquine diphosphate], the “CC10 (concentration inducing 10% of cell death)” value in data set [2] turned out to be 18 µM. Also, the Cmax in data set [3] (setting [8]) is 0.81 µM.

As to `CCN(CCO)CCCC(C)Nc1ccnc2cc(Cl)ccc12` (stereo not drawn) [Hydroxychloroquine (sulphate), hydroxychloroquine sulphate], the “Concentration with significant inhibition of Panx1 channel activity (extracellular ATP release)” value in data set [1] was 23 µM. Further, the “Effect on extracellular ATP release / Panx1 channel activity (in words)” value was “inhibit Panx1 channel activity” in data set [1] (listed as hydroxychloroquine) and “significant decrease in extracellular ATP release” in data set [1] (listed as hydroxychloroquine sulphate). Moreover, in data set [6], the “Effect on Panx1 protein levels” value was “without affecting mRNA or protein levels”. Moreover, the Cmax in data set [3] (setting [8]) is 0.97 µM. The “CC10 (concentration inducing 10% of cell death)” value in data set [5] came out at 23 µM. Further, the “Effect on Panx1 mRNA levels” value in data set [7] is given as “without affecting mRNA or protein levels”.

The values above are taken from PMC9146942 (International Journal of Molecular Sciences, 2022).
